Data on 20 compounds can be found in patent US20140243286A1, “BROMODOMAIN LIGANDS CAPABLE OF DIMERIZING IN AN AQUEOUS SOLUTION, AND METHODS OF USING SAME” (Coferon, Inc., priority 2011, published 2014).

For one test, the target named is BRD3 (Homo sapiens, UniProt Q15059). Put plainly: Fluorescence anisotropy (FA) binding assay, BRD3. On the procedure: (§1) Fluorescence Anisotropy (FA) Binding Assays.
(§2) FA assays were performed as described in Chung et al., J. Med Chem., 2011 54(11): 3827-38 except that protein concentrations were 125 nM and plates were read on a Spectramax M5 plate reader.

The target in the next test is BRD4 (Homo sapiens, UniProt O60885). Put plainly: Fluorescence anisotropy (FA) binding assay, BRD4. On the procedure:
as §1, §2

A further test deals with BRD2 (Homo sapiens, UniProt P25440). Put plainly: Fluorescence anisotropy (FA) binding assay, BRD2. As to the method:
as §1, §2

The mark [1] stands for this setting: BRD3, protein 125 nM, read-out: IC50 range (FA assay) BRD3, BRD-E monomers.
Where [2] appears, read: BRD4, protein 125 nM, read-out: IC50 range (FA assay) BRD4, BRD-E monomers.
The mark [3] stands for this setting: BRD2, protein 125 nM, read-out: IC50 range (FA assay) BRD2, BRD-E monomers.
Setting [4] is: BRD3, protein 125 nM, read-out: IC50 range (FA assay) BRD3, BRD-N monomers.
Setting [5] is: BRD4, protein 125 nM, read-out: IC50 range (FA assay) BRD4, BRD-N monomers.
Where [6] appears, read: BRD2, protein 125 nM, read-out: IC50 range (FA assay) BRD2, BRD-N monomers.

Read-outs that look alike come from different tables or passages of the source.

Sequence of BRD2 (P25440 whole entry): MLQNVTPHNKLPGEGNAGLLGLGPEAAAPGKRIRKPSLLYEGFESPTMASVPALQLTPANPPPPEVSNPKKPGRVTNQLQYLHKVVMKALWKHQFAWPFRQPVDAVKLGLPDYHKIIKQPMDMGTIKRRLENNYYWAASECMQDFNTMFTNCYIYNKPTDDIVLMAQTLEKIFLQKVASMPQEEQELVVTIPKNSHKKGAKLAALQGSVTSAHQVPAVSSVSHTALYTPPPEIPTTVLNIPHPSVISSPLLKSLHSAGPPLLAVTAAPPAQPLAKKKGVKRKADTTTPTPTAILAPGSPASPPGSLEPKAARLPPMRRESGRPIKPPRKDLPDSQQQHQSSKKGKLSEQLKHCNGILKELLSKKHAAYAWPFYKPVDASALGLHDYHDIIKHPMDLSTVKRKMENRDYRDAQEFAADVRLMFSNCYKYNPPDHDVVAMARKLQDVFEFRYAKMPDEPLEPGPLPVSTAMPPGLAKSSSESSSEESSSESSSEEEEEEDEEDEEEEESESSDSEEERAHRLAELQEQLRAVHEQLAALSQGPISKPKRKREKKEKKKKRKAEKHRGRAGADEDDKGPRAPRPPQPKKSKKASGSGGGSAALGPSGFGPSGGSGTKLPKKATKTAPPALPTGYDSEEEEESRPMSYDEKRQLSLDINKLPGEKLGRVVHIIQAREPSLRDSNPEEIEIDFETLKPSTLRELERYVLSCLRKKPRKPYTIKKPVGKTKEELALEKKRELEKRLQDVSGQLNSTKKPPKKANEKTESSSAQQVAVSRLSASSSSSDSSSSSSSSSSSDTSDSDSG
Sequence of BRD3 (Q15059 whole entry): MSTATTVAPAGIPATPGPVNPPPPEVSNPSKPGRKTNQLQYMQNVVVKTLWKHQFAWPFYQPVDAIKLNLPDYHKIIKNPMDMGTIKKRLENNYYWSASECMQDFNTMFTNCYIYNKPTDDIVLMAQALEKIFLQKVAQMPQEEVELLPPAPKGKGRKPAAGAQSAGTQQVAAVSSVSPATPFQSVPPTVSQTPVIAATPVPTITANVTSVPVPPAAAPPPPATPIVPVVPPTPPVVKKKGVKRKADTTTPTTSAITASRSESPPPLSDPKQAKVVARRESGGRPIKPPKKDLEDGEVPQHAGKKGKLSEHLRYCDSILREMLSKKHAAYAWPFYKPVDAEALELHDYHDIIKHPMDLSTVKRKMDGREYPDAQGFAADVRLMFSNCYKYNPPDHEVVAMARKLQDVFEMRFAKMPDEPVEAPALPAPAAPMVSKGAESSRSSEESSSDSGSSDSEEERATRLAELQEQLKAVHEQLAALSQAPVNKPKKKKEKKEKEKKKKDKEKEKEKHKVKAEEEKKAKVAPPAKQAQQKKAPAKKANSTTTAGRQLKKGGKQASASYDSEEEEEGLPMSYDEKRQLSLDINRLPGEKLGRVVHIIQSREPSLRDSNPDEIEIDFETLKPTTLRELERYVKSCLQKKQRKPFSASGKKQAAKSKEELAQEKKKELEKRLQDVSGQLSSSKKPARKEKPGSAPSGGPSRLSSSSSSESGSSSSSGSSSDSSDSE

With `CCNC(=O)C[C@@H]1N=C(c2ccc(Cl)cc2)c2cc(OCCCNC(=O)c3cccc(B(O)O)c3)ccc2-n2c(C)nnc21` [BRD-E-23, (S)-(3-((3-((6-(4-chlorophenyl)-4-(2-(ethylamino)-2-oxoethyl)-1-methyl-4H-benzo[f][1,2,4]triazolo[4,3-a][1,4]diazepin-8-yl)oxy)propyl)carbamoyl)phenyl)boronic acid], the IC50 on BRD3 (setting [1]), at BRD4 (setting [2]) and on BRD2 (setting [3]) was 1000 to 30000 nM each time.
In the case of `COc1ccc2c(c1)C(c1ccc(Cl)cc1)=N[C@@H](CC(=O)NCCCNC(=O)c1ccc(B(O)O)cc1)c1nnc(C)n1-2` [BRD-E-03, (4-((3-(2-((4S)-6-(4-chlorophenyl)-8-methoxy-1-methyl-4H-benzo[f][1,2,4]triazolo[4,3-a][1,4]diazepin-4-yl)acetamido)propyl)carbamoyl)phenyl)-boronic acid], the IC50 on BRD3 (setting [1]), at BRD4 (setting [2]) and on BRD2 (setting [3]) was 50 to 1000 nM throughout.
Consider `COc1ccc2c(c1)C(c1ccc(Cl)cc1)=N[C@@H](CC(=O)NCCCNC(=O)c1cccc(O)c1O)c1nnc(C)n1-2` [BRD-N-04, N-(3-(2-((4S)-6-(4-chlorophenyl)-8-methoxy-1-methyl-4H-benzo[f][1,2,4]triazolo[4,3-a][1,4]diazepin-4-yl)acetamido)propyl)-2,3-dihydroxybenzamide], for which the IC50 on BRD3, on BRD4 and at BRD2 was 50 to 1000 nM in each case.
Take `COc1ccc2c(c1)C(c1ccc(Cl)cc1)=N[C@@H](CC(=O)NCCCCNC(=O)c1ccc(O)c(O)c1)c1nnc(C)n1-2` [BRD-N-05, N-(4-(2-((4S)-6-(4-chlorophenyl)-8-methoxy-1-methyl-4H-benzo[f][1,2,4]triazolo[4,3-a][1,4]diazepin-4-yl)acetamido)butyl)-3,4-dihydroxybenzamide]: the IC50 at BRD3, on BRD4 and at BRD2 was 50 to 1000 nM throughout.
As to `COc1ccc2c(c1)C(c1ccc(Cl)cc1)=N[C@@H](CC(=O)NCCc1cccc(O)c1O)c1nnc(C)n1-2` [BRD-N-12, (S)-2-(6-(4-chlorophenyl)-8-methoxy-1-methyl-4H-benzo[f][1,2,4]triazolo[4,3-a][1,4]diazepin-4-yl)-N-(2,3-dihydroxyphenethyl)acetamide], the 50% inhibitory concentration (IC50) at BRD3 (setting [4]), on BRD4 (setting [5]) and at BRD2 (setting [6]) was 50 to 1000 nM each time.
For `CCNC(=O)C[C@@H]1N=C(c2ccc(Cl)cc2)c2cc(OCCNC(=O)c3ccc(O)c(O)c3)ccc2-n2c(C)nnc21` [BRD-N-24], the 50% inhibitory concentration (IC50) fell in the range of 50 to 1000 nM at BRD3 (setting [4]), 1000 to 30000 nM at BRD4 (setting [5]) and 50 to 1000 nM at BRD2 (setting [6]).
Take `COc1ccc2c(c1)C(c1ccc(Cl)cc1)=N[C@@H](CC(=O)NCCCNC(=O)c1ccc(O)c(O)c1)c1nnc(C)n1-2` [BRD-N-03, N-(3-(2-((4S)-6-(4-chlorophenyl)-8-methoxy-1-methyl-4H-benzo[f][1,2,4]triazolo[4,3-a][1,4]diazepin-4-yl)acetamido)propyl)-3,4-dihydroxybenzamide]: the IC50 on BRD3 (setting [4]), at BRD4 (setting [5]) and at BRD2 (setting [6]) was 50 to 1000 nM in each case.
Turning to `CCNC(=O)C[C@@H]1N=C(c2ccc(Cl)cc2)c2cc(OCCCNC(=O)c3cccc(O)c3O)ccc2-n2c(C)nnc21` [BRD-N-27, (S)—N-(3-((6-(4-chlorophenyl)-4-(2-(ethylamino)-2-oxoethyl)-1-methyl-4H-benzo[f][1,2,4]triazolo[4,3-a][1,4]diazepin-8-yl)oxy)propyl)-2,3-dihydroxybenzamide], the IC50 on BRD3 (setting [4]) was in the range of 50 to 1000 nM; on BRD4 (setting [5]), 50 to 1000 nM; on BRD2 (setting [6]), 1000 to 30000 nM.
Take `COc1ccc2c(c1)C(c1ccc(Cl)cc1)=N[C@@H](CC(=O)NCCNC(=O)Cc1cccc(B(O)O)c1)c1nnc(C)n1-2` [BRD-E-38, (3-(2-((2-(2-((4S)-6-(4-chlorophenyl)-8-methoxy-1-methyl-4H-benzo[f][1,2,4]triazolo[4,3-a][1,4]diazepin-4-yl)acetamido)ethyl)amino)-2-oxoethyl)phenyl)boronic acid]: the IC50 on BRD3 (setting [1]), at BRD4 (setting [2]) and at BRD2 (setting [3]) was 50 to 1000 nM in each case.
Regarding `CCNC(=O)C[C@@H]1N=C(c2ccc(Cl)cc2)c2cc(OCCCCNC(=O)c3cccc(B(O)O)c3)ccc2-n2c(C)nnc21` [BRD-E-25, (S)-(3-((4-((6-(4-chlorophenyl)-4-(2-(ethylamino)-2-oxoethyl)-1-methyl-4H-benzo[f][1,2,4]triazolo[4,3-a][1,4]diazepin-8-yl)oxy)butyl)carbamoyl)phenyl)boronic acid], the IC50 at BRD3 (setting [1]), at BRD4 (setting [2]) and on BRD2 (setting [3]) was 1000 to 30000 nM in each case.
As to `COc1ccc2c(c1)C(c1ccc(Cl)cc1)=N[C@@H](CC(=O)NCCc1ccc(B(O)O)cc1)c1nnc(C)n1-2` [BRD-E-13, (S)-(4-(2-(2-(6-(4-chlorophenyl)-8-methoxy-1-methyl-4H-benzo[f][1,2,4]triazolo[4,3-a][1,4]diazepin-4-yl)acetamido)ethyl)phenyl)boronic acid], the results for the half-maximal inhibitory concentration (IC50) at BRD3 (setting [1]), on BRD4 (setting [2]) and on BRD2 (setting [3]) were 50 to 1000 nM, 50 to 1000 nM and 1000 to 30000 nM, respectively.
Regarding `CCNC(=O)C[C@@H]1N=C(c2ccc(Cl)cc2)c2cc(OCCCCNC(=O)c3ccc(O)c(O)c3)ccc2-n2c(C)nnc21` [BRD-N-28, (S)—N-(4-((6-(4-chlorophenyl)-4-(2-(ethylamino)-2-oxoethyl)-1-methyl-4H-benzo[f][1,2,4]triazolo[4,3-a][1,4]diazepin-8-yl)oxy)butyl)-3,4-dihydroxybenzamide], the IC50 on BRD3 (setting [4]) was 50 to 1000 nM; on BRD4 (setting [5]), 1000 to 30000 nM; at BRD2 (setting [6]), 1000 to 30000 nM.
In the case of `COc1ccc2c(c1)C(c1ccc(Cl)cc1)=N[C@@H](CC(=O)NCCCCCNC(=O)c1ccc(O)c(O)c1)c1nnc(C)n1-2` [BRD-N-07, N-(5-(2-((4S)-6-(4-chlorophenyl)-8-methoxy-1-methyl-4H-benzo[f][1,2,4]triazolo[4,3-a][1,4]diazepin-4-yl)acetamido)pentyl)-3,4-dihydroxybenzamide], the IC50 at BRD3 (setting [4]), on BRD4 (setting [5]) and on BRD2 (setting [6]) was 50 to 1000 nM throughout.
Take `CCNC(=O)C[C@@H]1N=C(c2ccc(Cl)cc2)c2cc(OCCCC(=O)Nc3ccc(O)c(O)c3)ccc2-n2c(C)nnc21` [BRD-N-20, (S)-4-((6-(4-chlorophenyl)-4-(2-(ethylamino)-2-oxoethyl)-1-methyl-4H-benzo[f][1,2,4]triazolo[4,3-a][1,4]diazepin-8-yl)oxy)-N-(3,4-dihydroxyphenyl)butanamide]: the IC50 on BRD3 (setting [4]), at BRD4 (setting [5]) and at BRD2 (setting [6]) was 50 to 1000 nM each time.
Take `CCNC(=O)C[C@@H]1N=C(c2ccc(Cl)cc2)c2cc(OCC(=O)Nc3ccc(B(O)O)cc3)ccc2-n2c(C)nnc21` [BRD-E-16, (S)-(4-(2-((6-(4-chlorophenyl)-4-(2-(ethylamino)-2-oxoethyl)-1-methyl-4H-benzo[f][1,2,4]triazolo[4,3-a][1,4]diazepin-8-yl)oxy)acetamido)phenyl)boronic acid]: the IC50 on BRD3 (setting [1]) lay within 50 to 1000 nM; on BRD4 (setting [2]), 50 to 1000 nM; at BRD2 (setting [3]) it was 1000 to 30000 nM.
In the case of `CCNC(=O)C[C@@H]1N=C(c2ccc(Cl)cc2)c2cc(OCCCCC(=O)Nc3cccc(B(O)O)c3)ccc2-n2c(C)nnc21` [BRD-E-20, (S)-(3-(5-((6-(4-chlorophenyl)-4-(2-(ethylamino)-2-oxoethyl)-1-methyl-4H-benzo[f][1,2,4]triazolo[4,3-a][1,4]diazepin-8-yl)oxy)pentanamido)phenyl)boronic acid], the half-maximal inhibitory concentration (IC50) at BRD3 (setting [1]), at BRD4 (setting [2]) and on BRD2 (setting [3]) was 50 to 1000 nM in each case.
For `COc1ccc2c(c1)C(c1ccc(Cl)cc1)=N[C@@H](CC(=O)NCc1ccc(B(O)O)cc1)c1nnc(C)n1-2` [BRD-E-09, (S)-(4-((2-(6-(4-chlorophenyl)-8-methoxy-1-methyl-4H-benzo[f][1,2,4]triazolo[4,3-a][1,4]diazepin-4-yl)acetamido)methyl)phenyl)boronic acid], the IC50 on BRD3 (setting [1]), on BRD4 (setting [2]) and at BRD2 (setting [3]) was 50 to 1000 nM each time.
For the compound `COc1ccc2c(c1)C(c1ccc(Cl)cc1)=N[C@@H](CC(=O)NCCc1cccc(B(O)O)c1)c1nnc(C)n1-2` [BRD-E-14, (S)-(3-(2-(2-(6-(4-chlorophenyl)-8-methoxy-1-methyl-4H-benzo[f][1,2,4]triazolo[4,3-a][1,4]diazepin-4-yl)acetamido)ethyl)phenyl)boronic acid], the IC50 on BRD3 (setting [1]), at BRD4 (setting [2]) and at BRD2 (setting [3]) was 50 to 1000 nM in each case.
As for `CCNC(=O)C[C@@H]1N=C(c2ccc(Cl)cc2)c2cc(OCCNC(=O)c3cccc(O)c3O)ccc2-n2c(C)nnc21` [BRD-N-25, (S)—N-(2-((6-(4-chlorophenyl)-4-(2-(ethylamino)-2-oxoethyl)-1-methyl-4H-benzo[f][1,2,4]triazolo[4,3-a][1,4]diazepin-8-yl)oxy)ethyl)-2,3-dihydroxybenzamide], the concentration for half-maximal inhibition (IC50) on BRD3 (setting [4]) lay in the range of 50 to 1000 nM; on BRD4 (setting [5]) it was 50 to 1000 nM; on BRD2 (setting [6]), 1000 to 30000 nM.
As to `COc1ccc2c(c1)C(c1ccc(Cl)cc1)=N[C@@H](CC(=O)NCCNC(=O)c1ccc(B(O)O)cc1)c1nnc(C)n1-2` [BRD-E-01, (4-((2-(2-((4S)-6-(4-chlorophenyl)-8-methoxy-1-methyl-4H-benzo[f][1,2,4]triazolo[4,3-a][1,4]diazepin-4-yl)acetamido)ethyl)carbamoyl)phenyl)boronic acid], the IC50 at BRD3, on BRD4 and at BRD2 was 50 to 1000 nM each time.
